According to patent US20220167615A1, “FUNGICIDAL COMPOSITIONS” (SYNGENTA CROP PROTECTION AG, priority 2019, published 2022):
Like-named read-outs stand apart in the source and are kept apart here.

Experiments:
[1] = system: Botryotinia fuckeliana (Botrytis cinerea); test: Botryotinia fuckeliana (Botrytis cinerea) / liquid culture (Gray mould); format: cell-based; conditions: read-out: disease control (inhibition of growth, photometric)
[2] = system: Puccinia recondita f. sp. tritici; test: Puccinia recondita f. sp. tritici / wheat / leaf disc preventative (Brown rust); format: in vivo; conditions: foliar, read-out: percent disease control compared to untreated
[3] = system: Glomerella lagenarium (Colletotrichum lagenarium); test: Glomerella lagenarium (Colletotrichum lagenarium) / liquid culture (Anthracnose); format: cell-based; conditions: Colletotrichum orbiculare, read-out: disease control (inhibition of growth, photometric)
[4] = system: Mycosphaerella arachidis (Cercospora arachidicola); test: Mycosphaerella arachidis (Cercospora arachidicola) / liquid culture (early leaf spot); format: cell-based; conditions: read-out: disease control (inhibition of growth, photometric)
[5] = system: Monographella nivalis (Microdochium nivale); test: Monographella nivalis (Microdochium nivale) / liquid culture (foot rot cereals); format: cell-based; conditions: read-out: disease control (inhibition of growth, photometric)
[6] = system: Mycosphaerella graminicola (Septoria tritici); test: Mycosphaerella graminicola (Septoria tritici) / liquid culture (Septoria blotch); format: cell-based; conditions: Zymoseptoria tritici, read-out: disease control (inhibition of growth, photometric)
Phakopsora pachyrhizi = Phakopsora pachyrhizi / soybean / leaf disc preventative (Asian soybean rust); format: in vivo; conditions: foliar, read-out: percent disease control compared to untreated
[7] = system: Phaeosphaeria nodorum (Septoria nodorum); test: Phaeosphaeria nodorum (Septoria nodorum) / wheat / leaf disc preventative (Glume blotch); format: in vivo; conditions: Parastagonospora nodorum, foliar, read-out: percent disease control compared to untreated
[8] = system: Magnaporthe grisea (Pyricularia oryzae); test: whole plant or invertebrate; format: in vivo; conditions: foliar, read-out: percent disease control compared to untreated
[9] = 20 ppm in the applied formulation, Vogels broth, 24° C., 3-4 days after application, vs untreated control
[10] = 200 ppm in the applied formulation, wheat leaf segments cv. Kanzler, inoculated 1 day after application, assessed 7-9 days after application
[11] = 20 ppm in the applied formulation, PDB, 24° C., 3 to 4 days after application, vs untreated control
[12] = 20 ppm in the applied formulation, PDB, 24° C., 4-5 days after application, vs untreated control
[13] = 20 ppm in the applied formulation, PDB, 24° C., 4 to 5 days after application, vs untreated control
[14] = 200 ppm in the applied formulation, soybean leaf disks, inoculated one day after application, assessed 12 to 14 days after application
[15] = 200 ppm in the applied formulation, wheat leaf segments cv. Kanzler, inoculated 2 days after application, assessed 5-7 days after application

COc1ccnc(C(=O)N[C@@H](C)C(=O)OC(C)C2(c3ccc(Cl)cc3)CCC2)c1O (stereo partly drawn) [X.01, 1-[1-(4-chlorophenyl)cyclobutyl]ethyl(2S)-2-[(3-hydroxy-4-methoxy-pyridine-2-carbonyl)amino]propanoate]
≥ 80%: inhibition at 20 ppm [1, 9] | pest or weed control at 200 ppm [2, 10] | inhibition at 20 ppm [3, 11] | inhibition at 20 ppm [4, 12] | inhibition at 20 ppm [5, 12] | inhibition at 20 ppm [6, 13]

COc1ccnc(C(=O)N[C@@H](C)C(=O)OC(C)C(C)n2ccc3c(Br)ccc(F)c32)c1O (stereo partly drawn) [X.02, [2-(4-bromo-7-fluoro-indol-1-yl)-1-methyl-propyl] (2S)-2-[(3-hydroxy-4-methoxy-pyridine-2-carbonyl)amino]propanoate]
≥ 80%: pest or weed control at 200 ppm (Phakopsora pachyrhizi; [14]) | inhibition at 20 ppm [1, 9] | pest or weed control at 200 ppm [2, 10] | inhibition at 20 ppm [3, 11] | inhibition at 20 ppm [4, 12] | inhibition at 20 ppm [5, 12] | inhibition at 20 ppm [6, 13]

COc1ccnc(C(=O)N[C@@H](C)C(=O)OC(C)C(C)c2ncc(Cl)cc2Cl)c1O (stereo partly drawn) [X.03, [2-(3,5-dichloro-2-pyridyl)-1-methyl-propyl] (2S)-2-[(3-hydroxy-4-methoxy-pyridine-2-carbonyl)amino]propanoate]
≥ 80%: pest or weed control at 200 ppm [7] | pest or weed control at 200 ppm (Phakopsora pachyrhizi) | inhibition at 20 ppm [1] | pest or weed control at 200 ppm [2] | inhibition at 20 ppm [3] | inhibition at 20 ppm [4] | inhibition at 20 ppm [5] | inhibition at 20 ppm [6]

COc1ccnc(C(=O)N[C@@H](C)C(=O)O[C@@H](C)C2(c3cccc4ccccc34)CC2)c1OCOC(C)=O [X.04, [(1S)-1-[1-(1-naphthyl)cyclopropyl]ethyl] (2S)-2-[[3-(acetoxymethoxy)-4-methoxy-pyridine-2-carbonyl]amino]propanoate]
≥ 80%: pest or weed control at 200 ppm [7, 15] | pest or weed control at 200 ppm [8] | pest or weed control at 200 ppm (Phakopsora pachyrhizi; [14]) | pest or weed control at 200 ppm [2, 10] | inhibition at 20 ppm [3, 11] | inhibition at 20 ppm [4, 12] | inhibition at 20 ppm [5, 12] | inhibition at 20 ppm [6, 13]

COc1ccnc(C(=O)N[C@@H](C)C(=O)O[C@@H](C)C2(c3cccc4ccccc34)CC2)c1O [X.05, [(1S)-1-[1-(1-naphthyl)cyclopropyl]ethyl] (2S)-2-[(3-hydroxy-4-methoxy-pyridine-2-carbonyl)amino]propanoate]
≥ 80%: pest or weed control at 200 ppm [7, 15] | pest or weed control at 200 ppm [8] | pest or weed control at 200 ppm (Phakopsora pachyrhizi; [14]) | inhibition at 20 ppm [1, 9] | pest or weed control at 200 ppm [2, 10] | inhibition at 20 ppm [3, 11] | inhibition at 20 ppm [4, 12] | inhibition at 20 ppm [5, 12] | inhibition at 20 ppm [6, 13]

COc1ccnc(C(=O)N[C@@H](C)C(=O)OC(C)C(C)c2ncc(Cl)cc2Cl)c1OCOC(=O)C(C)C (stereo partly drawn) [X.06, [2-[[(1S)-2-[2-(3,5-dichloro-2-pyridyl)-1-methyl-propoxy]-1-methyl-2-oxo-ethyl]carbamoyl]-4-methoxy-3-pyridyl]oxymethyl 2-methylpropanoate]
≥ 80%: pest or weed control at 200 ppm (Phakopsora pachyrhizi; [14]) | pest or weed control at 200 ppm [2, 10] | inhibition at 20 ppm [4, 12] | inhibition at 20 ppm [5, 12] | inhibition at 20 ppm [6, 13]

COc1ccnc(C(=O)N[C@@H](C)C(=O)O[C@@H](C)C2(c3cccc4ccccc34)CC2)c1OCOC(=O)C(C)C [X.07, [4-methoxy-2-[[(1S)-1-methyl-2-[(1S)-1-[1-(1-naphthyl)cyclopropyl]ethoxy]-2-oxo-ethyl]carbamoyl]-3-pyridyl]oxymethyl 2-methylpropanoate]
≥ 80%: pest or weed control at 200 ppm [7, 15] | pest or weed control at 200 ppm [8] | pest or weed control at 200 ppm [2, 10] | inhibition at 20 ppm [3, 11] | inhibition at 20 ppm [4, 12] | inhibition at 20 ppm [6, 13]

COc1ccnc(C(=O)N[C@@H](C)C(=O)OC(C)C(C)(C)c2ccc(Br)cc2)c1O (stereo partly drawn) [X.08, [2-(4-bromophenyl)-1,2-dimethyl-propyl] (2S)-2-[(3-hydroxy-4-methoxy-pyridine-2-carbonyl)amino]propanoate]
≥ 80%: pest or weed control at 200 ppm [8] | inhibition at 20 ppm [1, 9] | pest or weed control at 200 ppm [2, 10] | inhibition at 20 ppm [3, 11] | inhibition at 20 ppm [4, 12] | inhibition at 20 ppm [5, 12] | inhibition at 20 ppm [6, 13]

COc1ccnc(C(=O)N[C@@H](C)C(=O)OC(C)C2(c3ccccc3)CCCCC2)c1O (stereo partly drawn) [X.09, 1-(1-phenylcyclohexyl)ethyl (2S)-2-[(3-hydroxy-4-methoxy-pyridine-2-carbonyl)amino]propanoate]
≥ 80%: pest or weed control at 200 ppm [8] | inhibition at 20 ppm [1, 9] | pest or weed control at 200 ppm [2, 10] | inhibition at 20 ppm [3, 11] | inhibition at 20 ppm [4, 12] | inhibition at 20 ppm [5, 12] | inhibition at 20 ppm [6, 13]

COc1ccnc(C(=O)N[C@@H](C)C(=O)OC(C)C(C)c2ccc3ccccc3n2)c1O (stereo partly drawn) [X.10, [1-methyl-2-(2-quinolyl)propyl] (2S)-2-[(3-hydroxy-4-methoxy-pyridine-2-carbonyl)amino]propanoate]
≥ 80%: inhibition at 20 ppm [1, 9] | pest or weed control at 200 ppm [2, 10] | inhibition at 20 ppm [3, 11] | inhibition at 20 ppm [5, 12] | inhibition at 20 ppm [6, 13]

COc1ccnc(C(=O)N[C@@H](C)C(=O)OC(C)C(C)n2ccc3cccc(Br)c32)c1O (stereo partly drawn) [X.11, [2-(7-bromoindol-1-yl)-1-methyl-propyl] (2S)-2-[(3-hydroxy-4-methoxy-pyridine-2-carbonyl)amino]propanoate]
≥ 80%: pest or weed control at 200 ppm (Phakopsora pachyrhizi; [14]) | pest or weed control at 200 ppm [2, 10] | inhibition at 20 ppm [3, 11] | inhibition at 20 ppm [4, 12] | inhibition at 20 ppm [5, 12] | inhibition at 20 ppm [6, 13]

COc1ccnc(C(=O)N[C@@H](C)C(=O)OC(C)C(C)n2ccc3ccc(C(F)(F)F)cc32)c1O (stereo partly drawn) [X.12, [1-methyl-2-[6-(trifluoromethyl)indol-1-yl]propyl] (2S)-2-[(3-hydroxy-4-methoxy-pyridine-2-carbonyl)amino]propanoate]
≥ 80%: pest or weed control at 200 ppm [8] | inhibition at 20 ppm [1, 9] | pest or weed control at 200 ppm [2, 10] | inhibition at 20 ppm [3, 11] | inhibition at 20 ppm [4, 12] | inhibition at 20 ppm [5, 12] | inhibition at 20 ppm [6, 13]

COc1ccnc(C(=O)N[C@@H](C)C(=O)OC(C)C(C)n2ncc3ccccc32)c1O (stereo partly drawn) [X.13, (2-indazol-1-yl-1-methyl-propyl) (2S)-2-[(3-hydroxy-4-methoxy-pyridine-2-carbonyl)amino]propanoate]
≥ 80%: inhibition at 20 ppm [6, 13]

COc1ccnc(C(=O)N[C@@H](C)C(=O)OC(C)C(C)c2ccc(Cl)s2)c1O (stereo partly drawn) [X.14, [2-(5-chloro-2-thienyl)-1-methyl-propyl] (2S)-2-[(3-hydroxy-4-methoxy-pyridine-2-carbonyl)amino]propanoate]
≥ 80%: inhibition at 20 ppm [1, 9] | pest or weed control at 200 ppm [2, 10] | inhibition at 20 ppm [3, 11] | inhibition at 20 ppm [4, 12] | inhibition at 20 ppm [5, 12] | inhibition at 20 ppm [6, 13]

COc1ccnc(C(=O)N[C@@H](C)C(=O)OC(C)C(C)n2ccc3c(Cl)ccc(Cl)c32)c1OC(C)=O (stereo partly drawn) [X.15, [2-(4,7-dichloroindol-1-yl)-1-methyl-propyl] (2S)-2-[(3-acetoxy-4-methoxy-pyridine-2-carbonyl)amino]propanoate]
≥ 80%: pest or weed control at 200 ppm [2, 10] | inhibition at 20 ppm [3, 11] | inhibition at 20 ppm [4, 12] | inhibition at 20 ppm [5, 12] | inhibition at 20 ppm [6, 13]

COc1ccnc(C(=O)N[C@@H](C)C(=O)OC(C)C(C)n2ccc3c(F)ccc(Br)c32)c1OC(C)=O (stereo partly drawn) [X.16, [2-(7-bromo-4-fluoro-indol-1-yl)-1-methyl-propyl] (2S)-2-[(3-acetoxy-4-methoxy-pyridine-2-carbonyl)amino]propanoate]
≥ 80%: pest or weed control at 200 ppm (Phakopsora pachyrhizi; [14]) | pest or weed control at 200 ppm [2, 10] | inhibition at 20 ppm [3, 11] | inhibition at 20 ppm [4, 12] | inhibition at 20 ppm [5, 12] | inhibition at 20 ppm [6, 13]

COc1ccnc(C(=O)N[C@@H](C)C(=O)O[C@@H](C)C2(c3cccc4ccccc34)CC2)c1OC(C)=O [X.17, [(1S)-1-[1-(1-naphthyl)cyclopropyl]ethyl] (2S)-2-[(3-acetoxy-4-methoxy-pyridine-2-carbonyl)amino]propanoate]
≥ 80%: pest or weed control at 200 ppm [7, 15] | pest or weed control at 200 ppm [8] | pest or weed control at 200 ppm (Phakopsora pachyrhizi; [14]) | inhibition at 20 ppm [1, 9] | pest or weed control at 200 ppm [2, 10] | inhibition at 20 ppm [3, 11] | inhibition at 20 ppm [4, 12] | inhibition at 20 ppm [5, 12] | inhibition at 20 ppm [6, 13]
